From ChEMBL document CHEMBL1132959, “Design of potent dicyclic (1-5/4-10) gonadotropin releasing hormone (GnRH) antagonists” (J Med Chem, 2000)
Values belong to the compound of their own block, whether it stands above or below them. Square brackets hold non-standard residues; d marks the D form. Peptide text beside a SMILES is read from it. dPhe(4-Cl) = N[C@H](Cc1ccc(Cl)cc1)C(=O)O; NMeL = CN[C@@H](CC(C)C)C(=O)O; ΔPro = O=C(O)[C@@H]1C=CCN1; βAla = NCCC(=O)O

Assays:
Rattus norvegicus [1] = species on record: Rattus norvegicus; experiment: Antiovulatory potency at 1500 ug/rat expressed as rats ovulating by total no. of rats (9/10); assay type: functional
Rattus norvegicus [2] = species on record: Rattus norvegicus; experiment: Antiovulatory potency at 10 ug/rat expressed as rats ovulating by total no. of rats (0/10); assay type: functional
Rattus norvegicus [3] = species on record: Rattus norvegicus; experiment: Antiovulatory potency at 5 ug/rat expressed as rats ovulating by total no. of rats (3/20); assay type: functional
[4] = molecular target: T1, Gonadotropin-releasing hormone receptor (Rattus norvegicus, UniProt P30969); experiment: Affinity for rat gonadotrophin releasing hormone (GnRH) receptor using HEK293 cells transfected with rat Gonadotropin-releasing hormone receptor; assay type: cell-based; settings: hek293
T1 sequence (P30969 whole entry): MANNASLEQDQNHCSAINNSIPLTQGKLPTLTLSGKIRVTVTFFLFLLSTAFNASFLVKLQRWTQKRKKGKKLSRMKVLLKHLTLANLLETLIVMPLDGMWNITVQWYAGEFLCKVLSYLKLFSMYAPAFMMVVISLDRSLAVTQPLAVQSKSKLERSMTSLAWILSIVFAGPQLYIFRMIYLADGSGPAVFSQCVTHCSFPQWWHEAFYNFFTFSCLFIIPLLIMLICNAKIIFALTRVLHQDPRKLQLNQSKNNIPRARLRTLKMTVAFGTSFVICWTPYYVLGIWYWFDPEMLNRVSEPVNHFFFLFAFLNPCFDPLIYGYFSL

Rattus norvegicus [5] = species on record: Rattus norvegicus; experiment: Antiovulatory potency at 50 ug/rat expressed as rats ovulating by total no. of rats (3/3); assay type: functional
Rattus norvegicus [6] = species on record: Rattus norvegicus; experiment: Antiovulatory potency at 5 ug/rat expressed as rats ovulating by total no. of rats (2/3); assay type: functional
Rattus norvegicus [7] = species on record: Rattus norvegicus; experiment: Antiovulatory potency at 100 ug/rat expressed as rats ovulating by total no. of rats (0/4); assay type: functional
Rattus norvegicus [8] = species on record: Rattus norvegicus; experiment: Antiovulatory potency at 250 ug/rat expressed as rats ovulating by total no. of rats (5/5); assay type: functional
Rattus norvegicus [9] = species on record: Rattus norvegicus; experiment: Antiovulatory potency at 1 ug/rat expressed as rats ovulating by total no. of rats (4/4); assay type: functional
Rattus norvegicus [10] = species on record: Rattus norvegicus; experiment: Antiovulatory potency at 2.5 ug/rat expressed as rats ovulating by total no. of rats (3/5); assay type: functional
Rattus norvegicus [11] = species on record: Rattus norvegicus; experiment: Antiovulatory potency at 5 ug/rat expressed as rats ovulating by total no. of rats (3/5); assay type: functional
Rattus norvegicus [12] = species on record: Rattus norvegicus; experiment: Antiovulatory potency at 25 ug/rat expressed as rats ovulating by total no. of rats (4/8); assay type: functional
Rattus norvegicus [13] = species on record: Rattus norvegicus; experiment: Antiovulatory potency at 10 ug/rat expressed as rats ovulating by total no. of rats (4/4); assay type: functional
Rattus norvegicus [14] = species on record: Rattus norvegicus; experiment: Antiovulatory potency at 100 ug/rat expressed as rats ovulating by total no. of rats (2/6); assay type: functional
Rattus norvegicus [15] = species on record: Rattus norvegicus; experiment: Antiovulatory potency at 250 ug/rat expressed as rats ovulating by total no. of rats (3/6); assay type: functional
Rattus norvegicus [16] = species on record: Rattus norvegicus; experiment: Antiovulatory potency at 5 ug/rat expressed as rats ovulating by total no. of rats (1/8); assay type: functional
Rattus norvegicus [17] = species on record: Rattus norvegicus; experiment: Antiovulatory potency at 2.5 ug/rat expressed as rats ovulating by total no. of rats (0/5); assay type: functional

Ki [4]: 17 nM
Structure (SMILES): CC(=O)N[C@@H]1CCC(=O)NCC(=O)NCC[C@H]2NC(=O)[C@@H](CC(=O)NC[C@H](C(N)=O)NC(=O)[C@H]3CCCN3C(=O)[C@H](CCCN=C(N)N)NC(=O)[C@@H](CC(C)C)NC(=O)[C@@H](CCCN=C(N)N)NC2=O)NC(=O)[C@@H](Cc2c[nH]c3ccccc23)NC(=O)[C@H](Cc2ccc(Cl)cc2)NC1=O
Ovulating rats (Rattus norvegicus [5]): 3
Ovulating rats (Rattus norvegicus [6]): 2

Ki [4]: 0.12 nM
Structure (SMILES): CC(=O)N[C@@H]1CC(=O)NCC(=O)NCC[C@H]2NC(=O)[C@@H](CC(=O)NC[C@H](C(N)=O)NC(=O)[C@H]3CCCN3C(=O)[C@H](CCCN=C(N)N)NC(=O)[C@@H](CC(C)C)NC(=O)[C@@H](Cc3ccc4ccccc4c3)NC2=O)NC(=O)[C@@H](Cc2cccnc2)NC(=O)[C@H](Cc2ccc(Cl)cc2)NC1=O
Ovulating rats (Rattus norvegicus [9]): 4
Ovulating rats (Rattus norvegicus [10]): 3
Ovulating rats (Rattus norvegicus [11]): 3

Ki [4]: 0.86 nM
Structure (SMILES): CC(=O)N[C@@H]1CCC(=O)NCCC[C@H]2NC(=O)[C@@H](CC(=O)NC[C@H](C(N)=O)NC(=O)[C@H]3CCCN3C(=O)[C@H](CCCN=C(N)N)NC(=O)[C@@H](CC(C)C)NC(=O)[C@@H](Cc3ccc4ccccc4c3)NC2=O)NC(=O)[C@@H](Cc2c[nH]c3ccccc23)NC(=O)[C@H](Cc2ccc(Cl)cc2)NC1=O
Ovulating rats (Rattus norvegicus [12]): 4
Ovulating rats (Rattus norvegicus [13]): 4

Ki [4]: 0.15 nM
Structure (SMILES): CC(=O)N[C@@H]1CC(=O)NCCC(=O)NCC[C@H]2NC(=O)[C@@H](CC(=O)NC[C@H](C(N)=O)NC(=O)[C@H]3CCCN3C(=O)[C@H](CCCN=C(N)N)NC(=O)[C@@H](CC(C)C)NC(=O)[C@@H](Cc3ccc4ccccc4c3)NC2=O)NC(=O)[C@@H](Cc2c[nH]c3ccccc23)NC(=O)[C@H](Cc2ccc(Cl)cc2)NC1=O
Ovulating rats (Rattus norvegicus [16]): 1
Ovulating rats (Rattus norvegicus [17]): 0

Second part, the compound before the results:

Structure (SMILES): CC(C)C[C@H]1C(=O)N[C@@H](CCCN=C(N)N)C(=O)N2CCC[C@H]2C(=O)NCCC(=O)N2CC=C[C@H]2C(=O)N[C@H](Cc2ccc(Cl)cc2)C(=O)N[C@H](Cc2c[nH]c3ccccc23)C(=O)N[C@@H](CO)C(=O)N[C@@H](Cc2ccc(O)cc2)C(=O)N[C@H](Cc2c[nH]c3ccccc23)C(=O)N1C (cyclo([NMeL]RP[βAla][ΔPro][dPhe(4-Cl)][dW]SY[dW]))
Ovulating rats (Rattus norvegicus [1]): 9

Structure (SMILES): CC(=O)N[C@H](Cc1ccc2ccccc2c1)C(=O)N[C@H](Cc1ccc(F)cc1)C(=O)N[C@H](Cc1c[nH]c2ccccc12)C(=O)N[C@H]1CC(=O)NC[C@@H](C(N)=O)NC(=O)[C@@H]2CCCN2C(=O)[C@@H]2CCCCNC(=O)CC[C@H](NC1=O)C(=O)N[C@H](CCCN=C(N)N)C(=O)N[C@@H](CC(C)C)C(=O)N2
Ovulating rats (Rattus norvegicus [2]): 0
Ovulating rats (Rattus norvegicus [3]): 3

Structure (SMILES): CC(=O)N[C@H](Cc1ccc2ccccc2c1)C(=O)N[C@H](Cc1ccc(Cl)cc1)C(=O)N[C@@H]1CC(=O)NCCCC[C@@H]2NC(=O)[C@H](CC(C)C)NC(=O)[C@@H](CCCN=C(N)N)NC(=O)[C@H](Cc3ccc(O)cc3)NC(=O)[C@H](CC(=O)NC[C@@H](C(N)=O)NC(=O)[C@@H]3CCCN3C2=O)NC1=O
Ovulating rats (Rattus norvegicus [7]): 0
Ovulating rats (Rattus norvegicus [8]): 5

Structure (SMILES): CC(=O)N[C@@H]1CCC(=O)NCCCC[C@@H]2NC(=O)[C@H](CC(C)C)NC(=O)[C@@H](Cc3ccc4ccccc4c3)NC(=O)[C@H](CCCN=C(N)N)NC(=O)[C@H](CC(=O)NC[C@H](C(N)=O)NC(=O)[C@@H]3CCCN3C2=O)NC(=O)[C@@H](Cc2cccnc2)NC(=O)[C@H](Cc2ccc(Cl)cc2)NC1=O
Ki [4]: 1.8 nM
Ovulating rats (Rattus norvegicus [14]): 2
Ovulating rats (Rattus norvegicus [15]): 3
